Values of other authors as cited in US20050031575A1, “Block copolymers” (priority 2001, published 2005).

Tested on: solid tumours
Details: micelles ranging in size from 20-60 nm that accumulate in solid tumours

For “poly(ethylene glycol-aspartate) block copolymer doxorubicin conjugates”, the antitumour activity is given as “exhibit antitumour activity”.
